Ki, EC50 and Emax data for five compounds are collected here from US10030021B2, “Spirocyclic morphinans and use thereof” (Purdue Pharma L.P., priority 2014, dated 2018).

SMILES strings stand for the structures.

Assay [1] concerns the target T1, human kappa opioid receptor (κ) (Homo sapiens, UniProt P41145).
T1 construct: expressed in transfected cells; host or cells: HEK-293
Put plainly: κ-opioid receptor radioligand ([3H]-U69,593) dose displacement binding assay. As to the method: Membranes from recombinant HEK-293 cells expressing the human kappa opioid receptor (κ) (cloned in house) were prepared by lysing cells in ice cold hypotonic buffer (2.5 mM MgCl2, 50 mM HEPES, pH 7.4) (10 mL/10 cm dish) followed by homogenization with a tissue grinder/Teflon pestle. Membranes were collected by centrifugation at 30,000×g for 15 min at 4° C. and pellets were resuspended in hypotonic buffer to a final concentration of 1-3 mg/mL. Protein concentrations were determined using the BioRad protein assay reagent with bovine serum albumen as standard. Aliquots of κ receptor membranes were stored at −80° C.
Radioligand dose displacement assays used 0.4 nM [^3H]-U69,593 (GE Healthcare, Piscataway, N.J.; 40 Ci/mmole) with 15 μg membrane protein (recombinant κ opioid receptor expressed in HEK 293 cells; in-house prep) in a final volume of 200 μl binding buffer (5% DMSO, 50 mM Trizma base, pH 7.4). Non-specific binding was determined in the presence of 10 μM unlabeled naloxone or U69,593. All reactions were performed in 96-well polypropylene plates for 1 hour at a temperature of about 25° C. […] Fifty μl/well scintillation cocktail (Perkin Elmer, Shelton, Conn.) was added and plates were counted in a Packard Top-Count for 1 min/well.

The target in the next assay is T2, κ opioid receptor (Homo sapiens, UniProt P41145).
T2 construct: expressed in transfected cells; host or cells: HEK-293 (inferred from the in-house κ membrane preparation)
Put plainly: κ-opioid receptor [35S]GTPγS functional assay. The format is biochemical. The procedure: Functional [^35S]GTPγS binding assays were conducted as follows. κ opioid receptor membrane solution was prepared by sequentially adding final concentrations of 0.026 μg/μl κ membrane protein (in-house), 10 μg/mL saponin, 3 μM GDP and 0.20 nM [^35S]GTPγS to binding buffer (100 mM NaCl, 10 mM MgCl2, 20 mM HEPES, pH 7.4) on ice. The prepared membrane solution (190 μl/well) was transferred to 96-shallow well polypropylene plates containing 10 μl of 20× concentrated stock solutions of agonist prepared in DMSO. Plates were incubated for 30 min at a temperature of about 25° C. with shaking. Reactions were terminated by rapid filtration onto 96-well Unifilter GF/B filter plates (Perkin Elmer, Shelton, Conn.) using a 96-well tissue harvester (Packard) and followed by three filtration washes with 200 μl ice-cold binding buffer (10 mM NaH2PO4, 10 mM Na2HPO4, pH 7.4). Filter plates were subsequently dried at 50° C. for 2-3 hours. Fifty μ1/well scintillation cocktail (Perkin Elmer, Shelton, Conn.) was added and plates were counted in a Packard Top-Count for 1 min/well.
κ GTP EC50 is the concentration of a compound providing 50% of the maximal response for the compound at a κ receptor.
κ GTP Emax (%) is the maximal effect elicited by a compound relative to the effect elicited by U69,593.

For the next assay, the target named is T3, μ-opioid receptor (Homo sapiens, UniProt P35372).
T3 construct: purchased Perkin Elmer, Shelton, Conn
Put plainly: μ-opioid receptor [35S]GTPγS functional assay. To be noted: for Emax: maximal effect relative to DAMGO. The format is biochemical. The procedure:
[^35S]GTPγS functional assays were conducted using freshly thawed μ-receptor membranes (Perkin Elmer, Shelton, Conn.). Assay reactions were prepared by sequentially adding the following reagents to binding buffer (100 mM NaCl, 10 mM MgCl2, 20 mM HEPES, pH 7.4) on ice (final concentrations indicated): membrane protein (0.026 mg/mL), saponin ([…]), GDP ([…]) and [^35S]GTPγS (0.20 nM; Perkin Elmer, Shelton, Conn.). The prepared membrane solution (190 μl/well) was transferred to 96-shallow well polypropylene plates containing 10 μl of 20× concentrated stock solutions of the agonist [D-Ala^2, N-methyl-Phe^4 Gly-ol^5]-enkephalin (DAMGO) prepared in dimethyl sulfoxide (DMSO). Plates were incubated for 30 min at about 25° C. with shaking. Reactions were terminated by rapid filtration onto 96-well Unifilter GF/B filter plates (Perkin Elmer, Shelton, Conn.) using a 96-well tissue harvester (Perkin Elmer, Shelton, Conn.) followed by three filtration washes with 200 μl of ice-cold wash buffer (10 mM NaH2PO4, 10 mM Na2HPO4, pH 7.4). Filter plates were subsequently dried at 50° C. for 2-3 hours. BetaScint scintillation cocktail (Perkin Elmer, Shelton, Conn.) was added (50 μl/well) and plates were counted using a Packard Top-Count for 1 min/well. Data were analyzed using the sigmoidal dose-response curve fitting functions in GraphPad PRISM v. 3.0, or an in-house function for non-linear, sigmoidal dose-response curve-fitting.
μ GTP EC50 is the concentration of a compound providing 50% of the maximal response for the compound at a μ-opioid receptor.
μ GTP Emax (%) is the maximal effect elicited by a compound relative to the effect elicited by DAMGO, a standard agonist. Generally, the μ GTP Emax (%) value measures the efficacy of a compound to treat or prevent pain or other Conditions.

T3 sequence (P35372 whole entry, species assumed): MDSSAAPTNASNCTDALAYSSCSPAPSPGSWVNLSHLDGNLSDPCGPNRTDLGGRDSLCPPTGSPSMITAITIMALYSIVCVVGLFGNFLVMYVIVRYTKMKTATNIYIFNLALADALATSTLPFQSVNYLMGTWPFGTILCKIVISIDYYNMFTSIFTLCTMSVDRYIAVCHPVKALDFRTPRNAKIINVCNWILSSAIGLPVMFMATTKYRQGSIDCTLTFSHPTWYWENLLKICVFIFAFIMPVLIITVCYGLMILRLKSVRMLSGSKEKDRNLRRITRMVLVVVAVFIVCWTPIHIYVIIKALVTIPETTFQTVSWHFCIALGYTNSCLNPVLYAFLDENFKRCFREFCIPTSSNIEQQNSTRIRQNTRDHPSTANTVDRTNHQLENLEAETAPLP
T2 sequence (P41145 whole entry): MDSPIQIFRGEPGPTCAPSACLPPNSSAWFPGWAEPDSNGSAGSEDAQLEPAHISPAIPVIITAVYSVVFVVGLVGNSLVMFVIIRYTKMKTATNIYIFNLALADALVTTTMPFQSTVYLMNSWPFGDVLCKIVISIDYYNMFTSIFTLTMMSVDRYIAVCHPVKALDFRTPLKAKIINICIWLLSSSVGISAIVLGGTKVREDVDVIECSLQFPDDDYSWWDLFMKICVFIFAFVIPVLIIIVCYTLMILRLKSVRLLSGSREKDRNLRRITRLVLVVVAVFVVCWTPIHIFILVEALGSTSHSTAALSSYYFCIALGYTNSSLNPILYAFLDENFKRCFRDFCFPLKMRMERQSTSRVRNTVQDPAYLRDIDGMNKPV
T1 sequence (P41145 whole entry): as above

Consider `CCN1C(=O)N(CC)[C@]2(CC[C@H]3[C@H]4Cc5ccc(O)cc5[C@@]3(CCN4C)C2)C1=O` [Compound 21, (4S,4b′S,8a′R,9′R)-1,3-diethyl-3′-hydroxy-11′-methyl-8′,8a′,9′,10′-tetrahydro-5′H,7′H-spiro[imidazolidine-4,6′-[9,4b](epiminoethano)phenanthrene]-2,5-dione], for which the Ki in assay [1] stood at 10.5 ± 1.11 nM. Moreover, the EC50 was found to be 221 ± 22.6 nM at κ opioid receptor and 54.7 ± 7.76 nM at μ-opioid receptor. In addition, the Emax came to 56.7 ± 3.66% at κ opioid receptor (maximal effect relative to U69,593) and 24.7 ± 2.46% at μ-opioid receptor.

Regarding `COc1ccc2c(c1)[C@]13CCN(CCCN(C)C)[C@H](C2)[C@]1(O)CC[C@@]1(C3)NC(=O)NC1=O` [Compound 4, (4S,4b′R,8a′S,9′R)-11′-(3-(dimethylamino)propyl)-8a′-hydroxy-3′-methoxy-8′,8a′,9′,10′-tetrahydro-5′H,7′H-spiro[imidazolidine-4,6′-[9,4b](epiminoethano)phenanthrene]-2,5-dione], on μ-opioid receptor, the 50% effective concentration (EC50) was > 20000 nM and the Emax is -1 ± 0.003%.

As for `COc1ccc2c(c1)[C@]13CCN[C@H](C2)[C@]1(O)CC[C@]1(C3)C(=O)N(CC2CC2)C(=O)N1CC1CC1` [Compound 17, (4S,4b′R,8a′S,9′R)-1,3-bis(cyclopropylmethyl)-8a′-hydroxy-3′-methoxy-8′,8a′,9′,10′-tetrahydro-5′H,7′H-spiro[imidazolidine-4,6′-[9,4b](epiminoethano)phenanthrene]-2,5-dione], on μ-opioid receptor, the concentration giving a half-maximal response (EC50) is > 20000 nM and the Emax worked out at 26 ± 5.51%.

In the case of `CCN1C(=O)N(CC)[C@]2(CC[C@@]3(O)[C@H]4Cc5ccc(O)cc5[C@@]3(CCN4CCN(C)C)C2)C1=O` [Compound 26, (4S,4b′R,8a′S,9′R)-11′-(2-(dimethylamino)ethyl)-1,3-diethyl-3′,8a′-dihydroxy-8′,8a′,9′,10′-tetrahydro-5′H,7′H-spiro[imidazolidine-4,6′-[9,4b](epiminoethano)phenanthrene]-2,5-dione], at μ-opioid receptor, the EC50 is > 20000 nM and the Emax was 0.5%.

Consider `CN1CC[C@]23C[C@]4(CC[C@H]2[C@H]1Cc1ccc(O)cc13)NC(=O)NC4=O` [Compound 19, (4S,4b′S,8a′R,9′R)-3′-hydroxy-11′-methyl-8′,8a′,9′,10′-tetrahydro-5′H,7′H-spiro[imidazolidine-4,6′-[9,4b](epiminoethano)phenanthrene]-2,5-dione], for which, on μ-opioid receptor, the half-maximal effective concentration (EC50) is 97 ± 11.5 nM and the Emax is 54.6 ± 3.04%.
